What was measured:
LTB4 = test: Reverse Passive Arthus Reaction (pleurisy), LTB4 in pleural exudate; format: in vivo, male Lewis rats; settings: p.o.
Experimental: 3. Reverse Passive Arthus Reaction
A reverse passive Arthus reaction is induced in the pleural cavity of male Lewis rats (150-200 g; fasted overnight prior to use) by the intravenous administration of bovine serum albumin (BSA; 4 mg/0.2 ml) followed 30 minutes later by the injection of rabbit anti-BSA (1 mg/2.0 ml; lyophilized IgG fraction; Organon Teknika, West Chester, Pa.) into the right pleural space under halothane anesthesia. Drugs or vehicle (0.5% Tween-80) control are administered orally in a volume of 1 ml/100 g body weight at 1 hour prior to the anti-BSA. Animals are sacrificed at either the time of peak eicosanoid production (i.e. 5 minutes after anti-BSA for immunoreactive T×B2, 10 minutes for immunoreactive LTB4, 20 minutes for immunoreactive LTC4) or at the time of peak neutrophil infiltration (4 hours after anti-BSA) by CO2 inhalation. The pleural cavity is then exposed, the fluid exudate removed by gentle vacuum aspiration and the volume of exudate is recorded. For the determination of cellular infiltration, the pleural cavity is rinsed with 3 ml of 0.1% EDTA in sterile saline, and the recovered wash is pooled with the exudate. Cell number is determined on a model ZBI Coulter counter. For determination of eicosanoid production, undiluted pleural exudate is microfuged and the supernatant is extracted with ethanol (8-10 times volume). Extracts are either stored at -20° C., or are evaporated to dryness under a stream of N2 and reconstituted in radioimmunoassay (RIA) buffer.
Eicosanoids are quantitated by RIA according to the procedure specified by the RIA kit manufacturer (Advanced Magnetics, Cambridge, MA). Briefly, 100 μl of ^3 H-labeled eicosanoid and 100 μl of specific antibody are sequentially added to 100 μl of extracted pleural exudate in BGG-phosphate buffer which contains 0.01M phosphate, 0.1% bovine gamma globulin and 0.1% sodium azide at pH 7.0. Antibody-bound eicosanoid is separated from unbound eicosanoid by the addition of 750 μl of dextran (0.4%)-coated charcoal (Norit A) containing 0.1% sodium azide. The mixture is centrifuged at 2000 RPM at 5° C. for 15 minutes to pellet the charcoal and adsorbed unbound eicosanoid. Antibody-bound labeled eicosanoid is quantitated by counting in a liquid scintillation counter, and is correlated to concentration by a standard curve.

Low Density Lipoprotein = test: Inhibition of Copper Ion Mediated Oxidation of Low Density Lipoprotein; format: biochemical; settings: Cu^+2 mediated oxidation of rabbit or monkey LDL
Experimental: 5. Inhibition of Copper Ion Mediated Oxidation of Low Density Lipoprotein
In this in vitro assay, the inhibition of Cu^+2 mediated oxidation of rabbit or monkey LDL by an invention compound is determined spectrophotometricallly. Oxidation of LDL results in the formation of LDL-diene which absorbs light at 532 nm. Inhibition of oxidation of LDL leads to a decrease in absorbance at 532 nm.
Rabbit or monkey LDL is prepared according to the procedures of Havel, Eder and Gragdon, "The Distribution and Chemical Composition of Ultracentrifugally Separated Lipoproteins in Human Serum,: J, Clin. Invest. 34, 1345-1353 (1955) and Parhtasarathy, Wieland and Steriberg, "A Role for Endothelial Cell Lipoxygenase in the Oxidative Modification of Low Density Lipoprotein," Proc, Natl. Acad. Sci. USA 86, 1046-1050 (1989). Test compound solutions are prepared by dissolving the invention compounds in ethanol at concentrations up to 248 μM. The medium used is Dulbecco's phosphate buffered saline containing 0.5 mg/ml bovine serum albumin. For standards, 0 to 10 μl of an aqueous solution of 1,1,3,3-tetraethoxypropane (1 μmol/ml H2 O) in 4.1 ml of medium is used.
Test compound solution (100 μl) is added to 4 ml of medium in incubation tubes. To each tube is added 10 μl of LDL solution and 25 μl of aqueous copper sulfate solution (1.32 mg/ml H2 O ). The tubes are incubated at 37° C. for 90 minutes and the oxidation reaction quenched by addition of 1 ml of thiobarbituric acid solution (0.67% in 50% acetic acid). The tubes are heated at 90° C. for 1 hour, then chilled in an ice bath and the chromophore extracted into 2 ml of n-butanol. Absorbence is read at 532 nm and the results are reported as nmols of malondialdehyde equivalents.
Significant differences (p<0.05) are determined by the Dunnett T-test or by the Student-Newman-Keuls Test for significant differences between means. The assay is conducted using several concentrations I! of the inhibitor test compounds. The LDL solution concentrations at different experiments were either 1.5 mg/ml, 2.5 mg/ml or 10.3 mg/ml. The IC50 is determined by non-linear regression, plotting log I! vs. % inhibition. (Reference: K. Yagi, Biochemical Medicine 15, 212-216 (1976)).

Lipoxygenase = test: Ex-Vivo Measurement of Lipoxygenase Inhibition in Orally Dosed Rats (LTB4 in A23187-stimulated blood); parameters: species or system Male Sprague Dawley rats; settings: p.o.
Experimental: 2. Ex-Vivo Measurement of Lipoxygenase Inhibition in Orally Dosed Rats
After an interval of 3 or 6 hours, the rats were anesthetized with metofane (n=4/group) and blood collected in heparinized tubes. White blood cell counts and differentials were made. One ml of blood from each animal was placed in a 5 ml plastic tube in a shaker bath at 37° C. A23187 at a final concentration of 10 μM was added to the blood and the blood vortexed and incubated for 15 min at 37° C. with gentle shaking. Incubation was terminated by vortexing sample and centrifuging immediately at 1200× G for 15 min at 4° C. The plasma was transferred to 15 ml plastic tubes each containing 8 ml of methanol to precipitate protein followed by vortexing. The samples were stored at -70° C. overnight and the next day the samples were centrifuged at 800× G for 15 min to pellet the precipitate. The samples were dried in a Savant SpeedVac Concentrator Model SVC 200H and reconstituted to the original volume with cold RIA or ELISA buffer. The reconstituted samples were stored at -70° C. until assayed. The assay for LTB4 was performed according to the directions of the ^3 H!RIA kit or ELISA kit (Seragen). The total metabolite level in 1 ml of blood is calculated and reported as ng/10^6 neutrophils. Significance is determined by a one-way analysis of variance with LSD comparisons to control (p≤0.05).

[1] = 5 mg/kg, pretreatment period 6 hr

Cc1oc(-c2ccccc2)nc1COc1ccc(CN(O)C(N)=O)cc1 [Example 1, 1-Hydroxy-1-4-(5-methyl-2-phenyl-oxazol-4-ylmethoxy)-benzyl!-urea]
% Inhibition of LTB4 Synthesis (LTB4; 10 mg/kg): 36% | % Inhibition of LTB4 Synthesis (LTB4; 25 mg/kg): 69% | IC50 (Low Density Lipoprotein): 1100 nM | % Inhibition of LTB4 (Lipoxygenase; 10 mg/kg, pretreatment period 3 hr): 84% | % Inhibition of LTB4 (Lipoxygenase; 10 mg/kg, pretreatment period 6 hr): 75%

Cc1oc(-c2ccc(C(F)(F)F)cc2)nc1COc1ccc(CN(O)C(N)=O)cc1 [Example 6, 1-Hydroxy-1-4-5-methyl-2-(4-trifluoromethyl-phenyl)-oxazol-4-ylmethoxy!-benzyl!-urea]
% Inhibition of LTB4 Synthesis (LTB4; 10 mg/kg): 45% | % Inhibition of LTB4 (Lipoxygenase; [1]): 70%

NC(=O)N(O)Cc1ccc(OCc2coc(-c3ccccc3)n2)cc1 [Example 9, 1-Hydroxy-1-4-(2-phenyl-oxazol-4-ylmethoxy)-benzyl!-urea]
% Inhibition of LTB4 Synthesis (LTB4; 10 mg/kg): 60% | % Inhibition of LTB4 (Lipoxygenase; [1]): 60%

NC(=O)N(O)Cc1ccc(OCc2csc(-c3ccccc3)n2)cc1 [Example 10, 1-Hydroxy-1-4-(2-phenyl-thiazol-4-ylmethoxy)-benzyl!-urea]
% Inhibition of LTB4 Synthesis (LTB4; 10 mg/kg): 99% | % Inhibition of LTB4 (Lipoxygenase; [1]): 67%

— patent US5504097A, “N-hydroxyureas as 5-lipoxygenase inhibitors and inhibitors of oxidative modification of low density lipoprotein” (American Home Products Corporation, priority 1995, dated 1996)
